Source: patent US20220184091A1, “Methods of Treating Cancer with Chk1 Inhibitors” (Sierra Oncology, Inc., priority 2019, published 2022)

Legend:
[1] = tested on: EMT6/P; assay: Micronuclei assay, EMT6/P; type: cell-based; conditions: 1 μM, 24 hours or 48 hours
Protocol: H69 cells were cultured as discussed earlier and treated with or without SRA737 (1 μM). Cytochalasin B was added at 20th hour to each culture to give a final concentration of 3 μg/ml and the culture was incubated at 37° C. for up to 24 hrs. After 24 hrs incubation, the cells were centrifuged at 1000 rpm for 5 min. The supernatant was removed and the pellet was treated with weak hypotonic solution (0.075 M KCl/0.9% Saline, 1:9) and incubated at 37° C. for 5 min. After this, the cells were centrifuged and the pellets were fixed in fresh fixative (methanol:acetic acid, 3:1). Cells were dropped onto glass slides were prepared and stained with ProLong® Gold Antifade Mountant with DAPI. In the case of EMT-6 cells, micronuclei formation assays were performed at Phenovista Biosciences, San Diego. The cells were treated with either 1 μM or 5 μM SRA737 for 24h followed by mixing with 4% PFA for 20 minutes at RT directly in the culture wells, washing with PBS and staining with Hoechst (1:1000). The plates were imaged at 40× using the Thermo Fisher Scientific CellInsight CX7 imaging system and the micronuclei algorithm was adjusted to score all nuclei that are <55% of the size of the main nucleus. A total of 25 fields per well were imaged and the data was averaged across 8 replicates.
SRA737 was also evaluated for induced cytogenetic stress using a micronuclei (MN) assay.

[2] = Phase 1 clinical study, SRA737 in combination with gemcitabine, dose escalation; type: in vivo; conditions: human, mean
Protocol: A Phase 1 clinical trial was conducted in ‘all comers,’ i.e. no genetic selection was performed, to establish safety, tolerability and pharmacokinetics for SRA737 administered in combination with gemcitabine (“Dose Escalation Phase”). Cohorts consisting initially of a single subject received escalating doses of SRA737, starting in Cohort 1 with 40 mg/day administered orally on days 2, 3, 9, 10, 16, and 17 of each 28-day cycle. Cohorts also received various doses of gemcitabine, starting in Cohort 1 with 300 mg/m^2/day administered IV over 30 minutes on days 1, 8, and 15 of each 28-day cycle.
FIG. 5 presents a summary of dosing amounts for the cohorts tested. In the Dose Escalation Phase, a total of 55 subjects received SRA737 in 13 dose escalation cohorts at doses of 40 to 600 mg SRA737 combined with LDG doses of 50 to 300 mg/m^2.

[3] = tested on: IFNβ, CXCL10 and CCL5; assay: qPCR of IFNβ, CXCL10 and CCL5 in resected RPP tumors; type: in vivo, mouse
Protocol: Data presented as mean±SD and p values by t-test * p<0.05, **p<0.01, ***p<0.001.
Real-time PCR was done using SYBR Select Master Mix (Life Technologies, cat #4472908) according to the manufacturer's protocol. Primers were purchased from Sigma Aldrich, Inc. Triplicate PCR reactions were run on ABI (7500 Fast Real Time PCR System). The comparative Ct method using the average 2ΔΔCT value for each set of triplicates was used, and the average of the biological replicates was calculated. Negative controls were included for every primer set, and GAPDH was used as the […].

[4] = tested on: MBT-2; assay: MBT-2 bladder flank tumor growth in immunocompetent mice; type: in vivo, mouse; conditions: SRA737 100 mg/kg 5-days-on/2-days-off p.o., anti-PD1 BIW 10 mg/kg i.p.
Protocol: Tumors were evaluated twice weekly for the duration of the study. Tumor volumes were measured on all mice three times per week and calculated (width^2×length×0.4) using manual calipers. Once the average tumor size was in the range of 120-150 mm^3, mice were randomized into dosing groups using stratified sampling by assigning three animals per group for short-term reverse-phase protein array analysis and long-term treatment. Dosing schedules and duration varied depending on the study. Mice were weighed three times per week for the duration of the study, and a decrease in body weight >15% was considered indicative of a toxic dose. The Student t-test was used to determine statistical significance between compound- and vehicle-treated groups.
Tumors cells were implanted into the flank of immunocompetent mice. Once the volumes of the tumor reached 150-200 mm^3, the mice were randomized and treated with either monotherapy of SRA737 at 100 mg/kg for 5-days-on/2-days-off p.o., anti-PD1 BIW at 10 mg/kg i.p. or the combination thereof.

[5] = Phase 1 clinical study, SRA737 monotherapy dose escalation; conditions: human, in vivo
Protocol: A Phase 1 clinical trial was conducted in ‘all comers,’ i.e. no genetic selection was performed, to establish safety, tolerability and pharmacokinetics (“Dose Escalation Phase”). Cohorts consisting initially of a single subject received escalating doses of SRA737, starting in Cohort 1 with 20 mg/day administered orally on a continuous daily dosing schedule in 28 day cycles. the dose was escalated until the maximum tolerated dose (MTD) was identified.
In the Dose Escalation Phase, 18 subjects received SRA737 in 9 dose level cohorts, from 20 to 1300 mg QD; median treatment duration 62.5 days (range 1 to 226). […] Two of 3 subjects experienced DLTs at the 1300 mg once daily dose, each being an inability to receive 75% of the planned SRA737 dose due to GI intolerability, with the individual GI effects being low grade. […] A cohort receiving 500 mg twice daily was added to determine if a twice daily dosing schedule can improve GI tolerability, given the half-life of SRA737 is approximately 10 hours. One of 6 subjects experienced DLTs in the 500 mg twice daily cohort; this was an inability to receive 75% of the planned SRA737 dose due to grade 4 thrombocytopenia with grade 3 neutropenia and anemia.

[6] = tested on: SW1990; assay: Cell viability, pancreatic cancer line SW1990; type: cell-based; conditions: Homo sapiens
[7] = biological target: T1, Chk1 (Homo sapiens, UniProt O14757); assay: In vitro Chk1 autophosphorylation and potentiation of genotoxic agents; type: cell-based
T1 construct: endogenous in cells
T1 sequence (O14757 whole entry, species assumed): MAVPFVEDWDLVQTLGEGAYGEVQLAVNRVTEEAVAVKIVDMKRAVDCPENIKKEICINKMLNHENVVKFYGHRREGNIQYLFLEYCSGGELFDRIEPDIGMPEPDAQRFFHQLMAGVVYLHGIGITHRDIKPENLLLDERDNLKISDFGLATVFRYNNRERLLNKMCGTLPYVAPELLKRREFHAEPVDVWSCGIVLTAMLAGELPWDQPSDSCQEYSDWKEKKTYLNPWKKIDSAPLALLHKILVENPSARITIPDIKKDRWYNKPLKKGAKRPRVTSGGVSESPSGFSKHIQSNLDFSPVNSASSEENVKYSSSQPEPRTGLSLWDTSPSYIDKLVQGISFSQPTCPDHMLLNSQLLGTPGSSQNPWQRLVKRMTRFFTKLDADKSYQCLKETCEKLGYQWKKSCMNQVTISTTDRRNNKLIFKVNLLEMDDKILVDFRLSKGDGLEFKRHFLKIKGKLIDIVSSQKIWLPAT

[8] = 600 mg, Day 10, combination with gemcitabine

Structure (SMILES): N#Cc1cnc(Nc2cc(NCC3CNCCO3)c(C(F)(F)F)cn2)cn1 (centres unmarked) [SRA737, 5-[[4-[[morpholin-2-yl]methylamino]-5-(trifluoromethyl)-2-pyridyl]amino]pyrazine-2-carbonitrile]
- micronuclei formation [1]: led to micronuclei formation
- AUC0-24 ([2]; 40 mg, Day −7): 637 ng·h/mL
- Cmax ([2]; 80 mg, Day −7): 146 ng/mL
- Cmax ([2]; 300 mg, Day −7): 995 ng/mL
- AUC0-12 [2, 8]: 11,860 ng · h/mL
- Cmax [2, 8]: 2,109 ng/mL
- T1/2 ([2]; 600 mg, Day −7): 11.1 h
- gene expression levels of IFNβ, CXCL10 and CCL5 vs vehicle ([3]; RPP tumors at Day 21, 100 mg/kg 5-days-on/2-days-off): higher gene expression levels
- expression of IFNβ, CCL5 and CXCL10 ([3]; RPP tumors resected at Day 21, SRA737 2-days-on/5-days-off): Neither LDG nor SRA737 monotherapy (2-days-on/5-days-off) showed any significant effect
- TGI [4]: 53%
- doses that exceeded the level effective in preclinical models [5]: ≥ 300 mg
- T1/2 ([5]; 800 mg): 10.3 h
- IC50 [6]: 700 nM
- potentiation of the cytotoxicity of genotoxic chemotherapeutic agents and targeted agents [7]: dose-dependent potentiation
